The record followed here is patent US4510085A, “Antihypertensive tetrapeptide amides” (G.D. Searle & Co., priority 1984, dated 1985).

Non-standard residues stand in square brackets, D forms with d. Residues, ends and D or L forms follow the SMILES beside them. No end group written: not given here. *: point of attachment. NH(2-adamantyl) = C1C2CC3CC1CC(C2)C3N*; 2Nal = N[C@@H](Cc1ccc2ccccc2c1)C(=O)O; Sta = CC(C)C[C@H](N)[C@@H](O)CC(=O)O; NEtPhe = CCN[C@@H](Cc1ccccc1)C(=O)O; Isovaleryl = CC(C)CC(=O)*

For one experiment, the target named is T1, human renin (Homo sapiens, UniProt P00797).
T1 construct: tissue World Health Organization International Laboratory for Biological Standards (National Institute for Biological Standards and Control, London, England); host or cells: human kidney
T1 sequence (P00797 67-406): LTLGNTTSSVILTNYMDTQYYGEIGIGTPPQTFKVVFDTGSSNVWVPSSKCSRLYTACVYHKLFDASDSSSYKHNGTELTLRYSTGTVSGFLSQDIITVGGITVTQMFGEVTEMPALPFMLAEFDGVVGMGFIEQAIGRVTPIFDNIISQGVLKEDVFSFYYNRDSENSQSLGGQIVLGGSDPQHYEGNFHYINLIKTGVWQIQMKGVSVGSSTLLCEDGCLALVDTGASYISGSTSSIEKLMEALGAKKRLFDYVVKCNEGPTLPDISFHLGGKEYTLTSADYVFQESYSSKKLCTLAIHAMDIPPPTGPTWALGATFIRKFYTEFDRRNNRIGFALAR
As to the kind of experiment: Inhibition of Human Renin. The class given is biochemical. To be noted: angiotensin I formed by radioimmunoassay; considered active if inhibition was greater than 20%. As for the experimental part: The renin inhibition activity of the compounds of this invention illustrated in the examples was tested by the following method.
International reference standard human renin, isolated from kidneys, was obtained from the World Health Organization International Laboratory for Biological Standards (National Institute for Biological Standards and Control, London, England). Renin activity is defined in "Goldblatt units" (GU), the quantity that, when injected directly into the blood stream of an unanesthetized dog, raises the direct mean femoral artery blood pressure by 30 mm Hg in about two minutes. E. Haas, L. Lewis, P. Scipione, and T. J. Koshy, Hypertension, 1, 112-117 (1979). Human angiotensinogen was used as an unisolated component of human blood plasma. The enzyme inhibition assay, see K. Poulsen, J. Burton, and E. Haber, Biochemistry, 12, 3877-3882 (1973), involved a two-hour incubation at 37° C. of the following final concentrations of reagents (0.25 ml total volume): 0.1 mGU/ml human renin; 0.05 ml human plasma; 6 mM disodium EDTA; 2.4 mM phenylmethylsulfonyl fluoride and 1.5 mM 8-hydroxyquinoline (angiotensinase inhibitors); 0.4 mg/ml bovine serum albumin; and 0.024 neomycin sulfate in 100 mM Tris-acetate buffer (pH 7.5). The enzymatic reaction was terminated by boiling the mixture for ten minutes. The quantity of angiotensin I formed was determined by radioimmunoassay, using the general method used in the angiotensin I radioimmunoassay kit of New England Nuclear.

The subject of another experiment is Opiate receptor. The experiment is described as follows: Opiate Receptor Binding. To be noted: rat brain membrane homogenates, tritium-labeled naloxone. The protocol:
Opiate receptor binding of the compounds of this invention illustrated in the examples was tested by the following method.
A 2 ml portion of the homogenate is incubated at 25° with the test compound (10 mcM) and tritium-labeled naloxone (1.0 nM). After sixty minutes, samples were rapidly cooled on ice, collected over glass-fiber filters, washed with cold buffer, and solubilized by incubation with 1.0 ml of NCS tissue solubilizer. Samples were then prepared for counting in a liquid scintillation counter. Specific binding was calculated, with results expressed as percent inhibition at the test dose.

In experiment [1] the test system is renal-ligated hypertensive rat. The experiment is described as follows: Renal-ligated Hypertensive Rat Assay. It counts as in vivo. To be noted: renal-ligated rats. As for the experimental part: Male Sprague Dawley rats aged 11 to 15 weeks old were used in this test. […] Test compounds were administered intra-arterially at a dose of 10 mg per kg of body weight, and blood pressure changes were monitored directly at 5, 10, and 15 minutes after injection.

The test system of a further experiment is Male Charles River mice. As to the kind of experiment: Hot-plate Assay. It counts as in vivo, mouse. To be noted: subcutaneous, dose active if 50% of the animals showed analgesia. As for the experimental part:
(§1) The in vivo analgesic activity of the compounds of this invention illustrated in the examples was tested using the following hot-plate and writhing assays. Tyrosyl-N-(phenylpropyl)-D-alaninamide, a known analog of enkephalin, is active in these assays.
Male Charles River mice (COBS CD-1(ICR)BR) weighing 20 to 30 grams were used in this assay. Two groups of fourteen mice were placed individually in a restraining cylinder placed on a hot plate kept at 55° (±0.5°). The reaction time for each mouse to lick a foot or jump was measured three times at 20 minute intervals. Mice not responding within fifteen seconds were discarded. Twenty minutes after the last reaction experiment ten mice were given a dose of the test compound and ten were given 0.9% saline (each solution containing approximately 0.09 ml of a 1:1 mixture by volume of propylene glycol and polysorbate 80) subcutaneously. The response times of the animals were measured as before at 30, 60, 90, and 120 minute intervals after this injection. Mice not responding within 30 seconds were removed from the hot plate and given a response time of 30 seconds. […] The ED50 of each active test compound was then calculated. See N. B. Eddy, D. Leimbach, J. Pharmacol. and Exp. Therap., 107, 385-393 (1953).

Experiment [2] has as its system Male Charles River albino mice. The experiment is described as follows: PBQ-Writhing Assay. To be noted: analgesia if writhes equal to or less than one-half the control median. The class given is in vivo, mouse. As for the experimental part: as §1
Male Charles River albino mice (CD-1(ICR)BR) weighing 20 to 30 grams were used in this assay. Thirty minutes after subcutaneous or intragastric administration (0.1 ml per 10 g of body weight) or fifteen minutes after intracerebroventricular administration (5 mcl total volume), a 0.025% solution of phenylbenzoquinone (PBQ) was injected intraperitoneally (0.1 ml per 10 g of body weight). Five minutes later each mouse was placed in a glass beaker and the number of writhes occurring in the next ten minutes was counted. (A writhe consists of dorsoflexion of the back, extension of the hindlimbs, and strong contraction of the abdominal musculature.) The test compound was considered to have produced analgesia in a mouse if the number of writhes elicited by PBQ was equal to or less than one-half the median number of writhes recorded for the saline-treated control group of mice that day. Results were expressed as the number of mice out of a possible ten in which the test compound produced analgesia. […]
A general note: In writhing tests, fewer writhes than in controls are read as antinociception.

In experiment [3] the test system is sodium depleted Rhesus monkeys. As to the kind of experiment: Rhesus Monkey Blood Pressure Test. It counts as in vivo. The protocol: Rhesus monkeys were sodium depleted by means of a fruit diet in combination with intramuscular furosemide injections (0.5 mg per kg of body weight) given twice daily for four days. This procedure causes blood pressure to become dependent on plasma renin activity. J. Burton, R. J. Cody, Jr., A. J. Herd, and E. Haber, Proc. Natl. Acad. Sci. U. S. A., 77, 5476-5479 (1980). On the fifth day the animals were anesthetized with ketamine (100 mg administered intravenously). The femoral artery was cannulated for blood pressure measurement and a percutaneous venous cannula was inserted for test compound administration. The animals were allowed to recover from anesthesia and were restrained in a transparent plastic chair. […]

On to `CCN[C@@H](Cc1ccccc1)C(=O)N[C@H](CCSC)C(=O)NCC(=O)N[C@@H](Cc1ccccc1)C(=O)NC1C2CC3CC(C2)CC1C3.Cl` (stereo partly drawn) [Example 15, N^α -ethyl-L-phenylalanyl-D-methionylglycyl-N-(2-adamantyl)-L-phenylalaninamide hydrochloride] (H-[NEtPhe][dM]GF-{NH(2-adamantyl)}), for which, on human renin, the renin inhibition activity entry is listed as “possess renin inhibition activity”. Moreover, the “opiate receptor binding relative to prior art compounds of U.S. Pat. No. 4,273,704” value in the experiment on Opiate receptor is “significantly lower opiate receptor binding”.

For the compound `CSCC[C@@H](NC(=O)[C@@H](N)Cc1ccc2ccccc2c1)C(=O)NCC(=O)N[C@@H](Cc1ccccc1)C(=O)NC1C2CC3CC(C2)CC1C3.Cl` (stereo partly drawn) [Example 29, 3-(2-naphthalenyl)-L-alanyl-D-methionylglycyl-N-(2-adamantyl)-L-phenylalaninamide hydrochloride] (H-[2Nal][dM]GF-{NH(2-adamantyl)}), on human renin, the renin inhibition activity entry is given as “possess renin inhibition activity”. Also, the “opiate receptor binding relative to prior art compounds of U.S. Pat. No. 4,273,704” value in the experiment with Opiate receptor is “significantly lower opiate receptor binding”.

Turning to `CC(C)CC(=O)N[C@H](C(=O)N[C@H](C(=O)N[C@@H](CC(C)C)[C@@H](O)CC(=O)N[C@@H](C)C(=O)N[C@@H](CC(C)C)[C@@H](O)CC(=O)O)C(C)C)C(C)C` [Pepstatin] (Isovaleryl-VV[Sta]A[Sta]-OH), the renin inhibition activity entry on human renin is “active”. Further, in experiment [1], the plasma renin activity entry is given as “significantly reduced”. Also, the “mean arterial blood pressure” value in experiment [1] (intra-arterial administration, significance P≤0.05) is “significantly reduced”.

Regarding `C[C@@H](NC(=O)[C@@H](N)Cc1ccc(O)cc1)C(=O)NCCCc1ccccc1` [Tyrosyl-N-(phenylpropyl)-D-alaninamide], the “analgesic activity, hot-plate” value in the experiment on Male Charles River mice is on record as “active”. Further, the “analgesic activity, PBQ writhing” value in experiment [2] was “active”.

On to `C[C@H](CS)C(=O)N1CCC[C@H]1C(=O)O` [captopril], for which the mean blood pressure result in experiment [3] (0.1 mg per kg) is recorded as “significantly lowered”.

For “PHPFHFFVYK [RIP, prolylhistidylprolylphenylalanylhistidylphenylalanylphenylalanylvalyltyros yllysine]”, the mean blood pressure entry in experiment [3] (1.0 mg per kg) was “significantly lowered”.
